According to ChEMBL document CHEMBL3632474, “Synthesis, biological evaluation and structure-activity relationship studies of isoflavene based Mannich bases with potent anti-cancer activity” (Bioorg Med Chem Lett, 2015):

How the values were obtained:
[1] = Antiproliferative effects against human SHEP cells after 72 hrs by Alamar blue assay
MRC5 = assay: Antiproliferative effects against human MRC5 cells after 72 hrs by Alamar blue assay; details: MRC5, 72 h

Question: Which IC50 [1] does the source give for `CCN(CC)Cc1cc(C2=Cc3cc(CN(CC)CC)c(O)cc3OC2)ccc1O` here?
Answer: 3.4 µM

Question: What about the IC50 (MRC5) of the same compound?
Answer: 21.2 µM

Question: With `Oc1ccc(C2=COc3cc(O)ccc3C2)cc1` [ISOPHENOXODIOL] as the compound, how does the IC50 [1] read?
Answer: 8.4 µM

Question: What about the IC50 (MRC5) of the same compound?
Answer: 109 µM

Question: With `Oc1ccc(C2=Cc3cc4c(cc3OC2)OCN(Cc2ccccc2)C4)cc1` as the compound, how does the IC50 [1] read?
Answer: 5.7 µM

Question: For `Oc1ccc(C2=Cc3cc(CN4CCOCC4)c(O)cc3OC2)cc1`, which IC50 [1] is on record?
Answer: 86.8 µM

Question: Which IC50 [1] does the source give for `CCN(CC)Cc1cc2c(cc1O)OCC(c1ccc(O)cc1)=C2` here?
Answer: 35.7 µM

Question: For `CN1COc2cc3c(cc2C1)C=C(c1ccc(O)cc1)CO3`, which IC50 [1] is on record?
Answer: 6.6 µM

Question: Which IC50 [1] does the source give for `Oc1ccc(C2=Cc3cc(CN4CCOCC4)c(O)cc3OC2)cc1CN1CCOCC1` here?
Answer: 171 µM

Question: Which IC50 [1] does the source give for `Oc1ccc(C2=Cc3cc(CN4CCOCC4)c(O)c(CN4CCOCC4)c3OC2)cc1CN1CCOCC1` here?
Answer: 69 µM

Question: Which results are given for `CCCCCCCN1COc2cc3c(cc2C1)C=C(c1ccc(O)cc1)CO3`?
Answer: IC50 [1]: 1.4 µM; IC50 (MRC5): 11.9 µM

Question: With `CCCCN1COc2cc3c(cc2C1)C=C(c1ccc(O)cc1)CO3` as the compound, how does the IC50 [1] read?
Answer: 3.9 µM

Question: What about the IC50 (MRC5) of the same compound?
Answer: 33.8 µM

Question: For `Oc1ccc(C2=Cc3cc(CN4CCCCC4)c(O)cc3OC2)cc1`, which IC50 [1] is on record?
Answer: 19.9 µM

Question: For `Oc1ccc(C2=Cc3cc4c(cc3OC2)OCN(CCc2ccccc2)C4)cc1`, which IC50 [1] is on record?
Answer: 0.7 µM

Question: And the IC50 (MRC5)?
Answer: 197 µM

Question: With `Oc1ccc(C2=COc3cc(O)c(CNCc4ccccc4)cc3C2)cc1` as the compound, how does the IC50 [1] read?
Answer: 5.7 µM

Question: What about the IC50 (MRC5) of the same compound?
Answer: 40.9 µM

Question: With `CC(C)NCc1cc2c(cc1O)OC=C(c1ccc(O)cc1)C2` as the compound, how does the IC50 [1] read?
Answer: 15.1 µM

Question: What does the source list for `Oc1ccc(C2=COc3cc(O)c(CNCCc4ccccc4)cc3C2)cc1`?
Answer: IC50 [1]: 1.8 µM; IC50 (MRC5): 36.7 µM

Question: For `CCCCOCCCNCc1cc2c(cc1O)OC=C(c1ccc(O)cc1)C2`, which IC50 [1] is on record?
Answer: 5.1 µM

Question: With `OCCNCc1cc2c(cc1O)OC=C(c1ccc(O)cc1)C2` as the compound, how does the IC50 [1] read?
Answer: 27.5 µM

Question: For `CCCCNCc1cc2c(cc1O)OC=C(c1ccc(O)cc1)C2`, which IC50 [1] is on record?
Answer: 4 µM

Question: What about the IC50 (MRC5) of the same compound?
Answer: 33.8 µM

Question: With `Oc1ccc(C2=Cc3cc(CN4CCCCC4)c(O)cc3OC2)cc1CN1CCCCC1` as the compound, how does the IC50 [1] read?
Answer: 4.2 µM

Question: What does the source list for `CCCCCCCNCc1cc2c(cc1O)OC=C(c1ccc(O)cc1)C2`?
Answer: IC50 [1]: 2.8 µM; IC50 (MRC5): 16 µM

Question: For `C1=C(c2ccc3c(c2)CN(Cc2ccccc2)CO3)COc2cc3c(cc21)CN(Cc1ccccc1)CO3`, which IC50 [1] is on record?
Answer: 3.7 µM

Question: For `CC(C)N1COc2cc3c(cc2C1)C=C(c1ccc(O)cc1)CO3`, which IC50 [1] is on record?
Answer: 12.2 µM

Question: For `CN(C)Cc1cc2c(cc1O)OC=C(c1ccc(O)cc1)C2`, which IC50 [1] is on record?
Answer: 5.8 µM

Question: Which IC50 [1] does the source give for `C=CCN1COc2cc3c(cc2C1)C=C(c1ccc(O)cc1)CO3` here?
Answer: 9.1 µM

Question: Which IC50 [1] does the source give for `OCCN1COc2cc3c(cc2C1)C=C(c1ccc(O)cc1)CO3` here?
Answer: 24.6 µM
